Assays:
[1] = test system: PANC02 tumors; test: PANC02 model, tumor vascularization (CD31 staining); assay type: in vivo; settings: 80 μg intra-tumor every other day for 2.5 weeks; compared with control treated mice
Procedure: FIG. 11 is a pair of images showing that intra-tumor injection of (11R)-71-85 reduces tumor vascularization. WT C57BL/6 mice were injected with 7.5×10^5 PANC02 cells and 16 days later were injected with 80 μg of either (11R)-71-85 or (11R)-Scrambled. Mice received intra-tumor injections every other day for 2.5 weeks. Twenty-four hours after the last injection, tumors were collected, fixed in formalin, and stained for the endothelial marker CD31, an indicator of tumor vascularization.
Tumor vascularization was also assessed in WT mice treated with (11R)-71-85. WT C57BL/6 mice were injected with 7.5×10^5 PANC02 cells. After 16 days, mice received intra-tumor injections of 80 μg of (11R)-71-85 or (11R)-Scrambled every other day for 2.5 weeks. Twenty-four hours after the last injection, tumors were collected, fixed in formalin, and stained for the endothelial marker CD31, an indicator for tumor vascularization.

[2] = test system: T cells; test: T cell proliferation after anti-CD3 and anti-CD28 stimulation; assay type: cell-based; settings: 0.2, 0.5, 1.0, 2.0 or 4.0 μg; anti-CD3 and anti-CD28 for 2 days
Procedure: FIG. 3 is a graph showing T cell proliferation in response to (11R)-71-85. T cells were purified from spleen and treated with different concentrations of (11R)-71-85 or control peptide (11R)-Ctrl. Cells were then washed and stimulated with anti-CD3 and anti-CD28 for 2 days and finally pulsed with 1 μCi [^3H]-thymidine 14 hours before harvesting. [^3H]-thymidine uptake was determined with a Wallac 1450 MicroBeta Liquid Scintillation Counter.
The ability of (11R)-71-85 to inhibit T cell proliferation and inflammatory cytokine production was also evaluated. T cells were purified from spleen and treated with different concentrations (0.2, 0.5, 1.0, 2.0 or 4.0 μg) of (11R)-71-85 or the control peptide (11R)-Ctrl. Cells were then washed and stimulated with anti-CD3 and anti-CD28 for 2 days and finally pulsed with 1 μCi [^3H]-thymidine 14 hours before harvesting. [^3H]-thymidine uptake was determined with a Wallac 1450 MicroBeta Liquid Scintillation Counter.

[3] = test system: KPC mice; test: KPC mice, PanIN progression and cancer formation after intravenous treatment; assay type: in vivo
Procedure: FIGS. 13A-13D are graphs showing that (11R)-71-85 inhibits PanIN and cancer formation in KPC mice. (FIG. 13A) KPC mice were sub-lethally irradiated at 6 weeks of age and packed with 10×10^6 hematopoietic bone marrow cells and the survival was monitored (n=5 per group; *p<0.05, Log-rank test). (FIG. 13B) Quantification of normal ducts and PanIN of KPC mice treated as in (A) (n=6 per group). (FIG. 13C) CD4^+ T cells infiltrated in the pancreas were analyzed for TNFα and IFNγ expression by flow cytometry after treatment with (11R) 71-85 or (11R) Scr. Bar graphs show the average percentage of indicated cytokine secreting cells. (n=8 per group; *p<0.05, NS=not significant, unpaired two-tailed Student's t-test). (FIG. 13D) KPC mice were treated as in (A) and the expression of different tumor promoting factors was analyzed in isolated pancreatic epithelial cells by quantitative real-time PCR (n=6 per group).
KPC mice provide a genetic model of murine pancreatic tumors that closely mimics the human disease. KPC (KrasG12D/^+; LSLTrp53R172H/^+; Pdx-1-Cre) mice express K-ras in pancreatic epithelium, and when made heterozygous for p53, develop spontaneous tumors starting at approximately 8-10 weeks of age (Hingorani et al., Cancer Cell 7(5):469-483, 2005). This involves the formation of pancreatic intraepithelial neoplasia precursor lesions (PanIN) and progression to fully-developed carcinoma with surrounding stromal and inflammatory reactions (Hingorani et al., Cancer Cell 7(5):469-483, 2005).
Given these findings, further experiments were conducted to determine if inhibition of the alternative pathway in KPC mice would alter disease progression. KPC mice were treated with intravenous (11R)-71-85 or (11R)-Scrambled starting at 9 weeks of age, and the pancreas was histologically evaluated 3.5 weeks later. Thirty-three percent (2 of 6) of mice treated with (11R)-Scrambled developed invasive carcinoma in the pancreas. […] In line with the reduced TNFα secretion, Irf4 mRNA expression was decreased in CD4^+ TILs after (11R)-71-85 treatment. […] The fact that early stage PanIN formation was present, but later pre-invasive stages were reduced, in (11R)-71-85-treated mice supports a role for T cell-derived TNFα in the progression of PanIN towards invasive carcinoma.

[4] = test system: Nfatc1 and Irf4 mRNA; test: Nfatc1 and Irf4 mRNA in spleen T cells after i.v. injection; assay type: in vivo, mice; settings: 50 μg i.v.; total T cells and CD4+ T cells from spleen
Procedure: FIG. 8 is a series of graphs showing reduction in expression of Nfatc1 and Irf4 in CD4^+ T cells following injection of (11R)-71-85. WT C57BL/6 mice were injected i.v. with 50 μg of DMSO, (11R)-Scrambled, or (11R)-71-85 and either total T cells or CD4±T cells were purified from spleen at different times. Purified cells were stimulated in vitro with anti-CD3/CD28 for 24 hours and the mRNA levels of the indicated transcription factors were determined by quantitative real-time PCR.
Expression of NFATc1 and IRF4, two transcription factors activated upon TCR stimulation, was also evaluated after intravenous (i.v.) injection of (11R)-71-85. WT C57BL/6 mice were injected i.v. with 50 μg of DMSO, (11R)-Scrambled, or (11R)-71-85, and either total T cells or CD4±T cells were purified from spleen at different times. Purified cells were stimulated in vitro with anti-CD3/CD28 for 24 hours and the mRNA levels of Nfatc1 and Irf4 were determined by quantitative real-time PCR.

[5] = intravenous, compared to control

For “(11R)-71-85: fusion protein: 11 arginine residues added to the N-terminus of the Gadd45α 71-85 peptide (LQIHFTLIQAFCCEN; N-terminal 11 arginine; UniProt P24522 71-85, looked up, fragment)”, the “CD31 staining (tumor vascularization)” value [1] was “significant reduction”, the “T cell proliferation ([3H]-thymidine uptake) in response to TCR stimulation” value [2] was “dose-dependent decrease” and the “Irf4 mRNA expression in CD4+ TILs” value ([3]; intravenous) was “decreased”. For the same substance, the “progression towards high grade PanIN formation (PanIN3, carcinoma in situ)” value ([3]; intravenous from 9 weeks of age, 3.5 weeks) was “slowed”, the “mice that developed invasive carcinoma in the pancreas” value ([3]; intravenous from 9 weeks of age, histology 3.5 weeks later) was “no mice” and the “intrapancreatic fibro-inflammatory reaction (H&E)” value ([3]; intravenous, compared to (11R)-Scrambled) was “reduced”. The “CD4+ tumor infiltrating lymphocytes expressing TNFα” value [3, 5] was “reduced numbers”, the “expression of IFNγ in CD4+ tumor infiltrating lymphocytes” value [3, 5] was “slightly reduced” and the “expression of Cc12 in pancreatic epithelial cells” value ([3]; quantitative real-time PCR) was “reduced”. The “expression of Cc15 in pancreatic epithelial cells” value ([3]; quantitative real-time PCR) was “reduced”, the “expression of Tgfβ in pancreatic epithelial cells” value ([3]; quantitative real-time PCR) was “reduced” and the “expression of Vegf in pancreatic epithelial cells” value ([3]; quantitative real-time PCR) was “reduced”. The “Irf4 mRNA expression following TCR stimulation” value [4] was “inhibits” and the “Nfatc1 mRNA expression following TCR stimulation” value [4] was “inhibits”.
